Test results from patent publication US11974574B2, “Compositions and related methods for modulating endosymbionts” (Flagship Pioneering Innovations V, Inc., priority 2017, dated 2024).

What was measured:
BCR-4 [1] = experiment: BCR-4 PNA microinjection, BCR-4 expression by RT-qPCR (Example 18); assay type: in vivo, A. pisum; details: microinjection 20 nl of 321 ng/μl; 4th and 5th instar; after 7 days; relative to Actin
Description: (§1) Microinjection was performed using NanoJet III Auto-Nanoliter Injector with an in-house pulled borosilicate needle (Drummond Scientific; Cat #3-000-203-G/XL). Aphids were transferred using a paint brush to a tubing system connected to vacuum which held them in place during the injection. The injection site was at the ventral thorax of the aphid. The injection solutions were water (negative control) or 321 ng/μl of BCR-4 PNA in water. The injection volume was 20 nl for adult (4th and 5th instar) aphids at a rate of 2 nl/sec. Each treatment group had approximately the same number of individuals injected from each of the collection plants. After injection, aphids were released into a petri dish onto fava bean leaves that had stems in an Eppendorf tube filled with 1 ml water. Survival and fecundity were monitored over the course of the experiment.
(§2) Aphids LSR-1 (which harbor only Buchnera), A. pisum were grown on fava bean plants (Vroma Vicia faba from Johnny's Selected Seeds) in a climate-controlled incubator (16 h light/8 h dark photoperiod; 60±5% RH; 25±2° C.). […]
After 7 days of treatment, RNA was extracted from the remaining aphids in each treatment group. […] RNA concentrations were measured using a nanodrop nucleic acid quantification. BCR-4 relative expression was measured by RT-qPCR. […] RT-qPCR data was analyzed using analytic (Thermo Fisher Scientific, QuantStudio Design and Analysis) software. […]

Aphids LSR-1, A. pisum = experiment: BCR-4 PNA microinjection, aphid survival and fecundity; assay type: in vivo
Description: as §1, §2
The number of offspring produced from aphids in each treatment group was also assessed during the experiment and fecundity was represented as the number of offspring produced per adult at each time point assessed. […]

[2] = tested on: Aphids (LSR-1 strain, Acyrthosiphon pisum); experiment: BCR-4 PNA leaf perfusion, aphid development and survival; assay type: in vivo; details: leaf perfusion with 1 uM solution
Description: Aphids (LSR-1 strain, Acyrthosiphon pisum) were grown on fava bean plants (Vroma Vicia faba from Johnny's Selected Seeds) in a climate-controlled incubator (16 h light/8 h dark photoperiod; 60±5% RH; 25±2° C.). Prior to being used for aphid rearing, fava bean plants were grown in potting soil at 24° C. with 16 h of light and 8 h of darkness. To limit maternal effects or health differences between plants, 5-10 adults from different plants were distributed among 10 two-week-old plants and allowed to multiply to high density for 5-7 days. For experiments, first and second instar aphids were collected from healthy plants and divided into two different treatment groups: 1) those allowed to feed on leaves perfused with water, and, 2) those allowed to feed on leaves perfused with a BCR-4 PNA solution in water.
For each leaf perfusion, approximately 1 ml of water (negative control) or a 1 uM BCR-4 PNA solution was injected into a fava bean leaf. […] Aphids were monitored daily for survival and dead aphids were removed when they were discovered. In addition, the developmental stage (1st, 2nd, 3rd, 4th, and 5th instar) was determined daily throughout the experiment.
LSR-1 first and second instar aphids were divided into two groups as defined in Leaf Perfusion Experimental Design. Aphids were monitored daily and the number of aphids at each developmental stage was determined. […]

Buchnera = experiment: BCR-4 PNA leaf perfusion, Buchnera/aphid copies by qPCR; assay type: in vivo; details: dead aphids collected 5 and 6 days post-treatment, water approximately 20
Description: After 5 and 6 days of treatment, DNA was extracted from dead aphids from each treatment group. Briefly, the aphid body surface was sterilized by dipping the aphid into a 6% bleach solution for approximately 5 seconds. Aphids were then rinsed in sterile water and DNA was extracted from each individual aphid using a DNA extraction kit (Qiagen, DNeasy kit) according to manufacturer's instructions. DNA concentration was measured using a nanodrop nucleic acid quantification, and Buchnera and aphid DNA copy numbers were measured by qPCR. The primers used for Buchnera were Buch_groES_18F ([…]; SEQ ID NO: 101) and Buch_groES_98R ([…]; SEQ ID NO: 102) (Chong and Moran, 2016 PNAS). The primers used for aphid were ApEF1a 107F ([…]; SEQ ID NO: 103) and ApEF1a 246R ([…]; SEQ ID NO: 104) (Chong and Moran, 2016 PNAS). qPCR was performed using a qPCR amplification ramp of 1.6 degrees C./s and the following conditions: 1) 95° C. for 10 minutes, 2) 95° C. for 15 seconds, 3) 55° C. for 30 seconds, 4) repeat steps 2-3 40×, 5) 95° C. for 15 seconds, 6) 55° C. for 1 minute, 7) ramp change to 0.15 degrees C./s, 8) 95° C. for 1 second. qPCR data was analyzed using analytic (Thermo Fisher Scientific, QuantStudio Design and Analysis) software. […]

BCR-4 [3] = experiment: BCR-4 PNA leaf perfusion, BCR-4 expression by RT-qPCR; assay type: in vivo, Acyrthosiphon pisum; details: living aphids after 7 days of treatment, relative to actin
Description: After 7 days of treatment, RNA was extracted from the remaining aphids in each treatment group. Briefly, the aphid body surface was sterilized by dipping the aphid into a 6% bleach solution for approximately 5 seconds. Aphids were then rinsed in sterile water and total RNA was extracted from each individual aphid using the RNA extraction kit (Qiagen miRNeasy kit) according to manufacturer's instructions. RNA concentrations were measured using a nanodrop nucleic acid quantification. BCR-4 relative expression was measured by RT-qPCR. The primers used were ApBCR-4F ([…]; SEQ ID NO: 107) and ApBCR-4R ([…]; SEQ ID NO: 108). The internal reference gene primers were for Actin (housekeeping gene). The forward sequence was […]; SEQ ID NO: 109 and the reverse sequence was […]; SEQ ID NO: 110. […] RT-qPCR data was analyzed using analytic (Thermo Fisher Scientific, QuantStudio Design and Analysis) software.
At 7 post-treatment, RNA was extracted from live aphids and RT-pPCR was done as described above (see Microinjection Delivery Experimental Design) to quantify expression of BCR-4. […]

## YGRKKRRQRRR-CGTACAATAATCTCATGG [BCR-4 PNA]
BCR-4 [1]
  BCR-4 expression, fold higher in water-injected aphids than in treated aphids: approximately 2 fold
Aphids LSR-1, A. pisum; microinjection 20 nl of 321 ng/μl, 4th and 5th instar
  survival versus water-injected aphids: slight decrease in survival
Aphids LSR-1, A. pisum; microinjection, at 3 and 7 days post-treatment, water 5 offspring/adult
  fecundity, average offspring produced per adult: 4 offspring/adult
[2]; day 7, water 53%
  aphids alive: 30%
[2]; first and second instar LSR-1, day 2 post-treatment, water approximately 19%
  aphids in the 3rd instar stage: 8%
Buchnera
  mean ratio Buchnera/aphid copies: approximately 57 Buchnera/aphid copies
BCR-4 [3]
  median transcript levels of BCR-4, fold lower than water: approximately 3 fold
